The record followed here is ChEMBL document CHEMBL5291721, “A preclinical secondary pharmacology resource illuminates target-adverse drug reaction associations of marketed drugs” (Nat Commun, 2023).

For one assay, the target named is T1, Adenosine receptor A3 (Homo sapiens, UniProt P0DMS8).
T1 sequence (P0DMS8 whole entry): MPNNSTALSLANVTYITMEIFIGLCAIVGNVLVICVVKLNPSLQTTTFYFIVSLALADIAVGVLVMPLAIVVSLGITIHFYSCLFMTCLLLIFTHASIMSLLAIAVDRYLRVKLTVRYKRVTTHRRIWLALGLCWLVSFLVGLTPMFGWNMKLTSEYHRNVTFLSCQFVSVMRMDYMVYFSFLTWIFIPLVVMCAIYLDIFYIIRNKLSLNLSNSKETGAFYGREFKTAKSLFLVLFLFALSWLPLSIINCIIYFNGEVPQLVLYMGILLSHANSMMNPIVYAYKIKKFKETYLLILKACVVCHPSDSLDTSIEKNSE

Assay [1] deals with T2, Alpha-2A adrenergic receptor (Homo sapiens, UniProt P08913).
T2 sequence (P08913 whole entry): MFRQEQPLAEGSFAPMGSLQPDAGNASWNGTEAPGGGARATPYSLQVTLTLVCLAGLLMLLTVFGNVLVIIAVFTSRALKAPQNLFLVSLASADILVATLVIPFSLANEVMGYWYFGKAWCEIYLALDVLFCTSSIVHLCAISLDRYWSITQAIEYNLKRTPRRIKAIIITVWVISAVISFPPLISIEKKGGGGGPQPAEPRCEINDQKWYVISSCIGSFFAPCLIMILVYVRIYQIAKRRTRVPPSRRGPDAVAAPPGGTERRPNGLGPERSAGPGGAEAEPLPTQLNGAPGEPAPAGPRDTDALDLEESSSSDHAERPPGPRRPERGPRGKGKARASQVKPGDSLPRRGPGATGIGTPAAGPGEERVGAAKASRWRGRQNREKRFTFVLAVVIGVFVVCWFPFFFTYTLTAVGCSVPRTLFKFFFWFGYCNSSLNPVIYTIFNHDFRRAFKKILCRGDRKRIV
The class given is functional, cell-based.

For assay [2], the target named is T3, Cholecystokinin receptor type A (Homo sapiens, UniProt P32238).
T3 sequence (P32238 whole entry): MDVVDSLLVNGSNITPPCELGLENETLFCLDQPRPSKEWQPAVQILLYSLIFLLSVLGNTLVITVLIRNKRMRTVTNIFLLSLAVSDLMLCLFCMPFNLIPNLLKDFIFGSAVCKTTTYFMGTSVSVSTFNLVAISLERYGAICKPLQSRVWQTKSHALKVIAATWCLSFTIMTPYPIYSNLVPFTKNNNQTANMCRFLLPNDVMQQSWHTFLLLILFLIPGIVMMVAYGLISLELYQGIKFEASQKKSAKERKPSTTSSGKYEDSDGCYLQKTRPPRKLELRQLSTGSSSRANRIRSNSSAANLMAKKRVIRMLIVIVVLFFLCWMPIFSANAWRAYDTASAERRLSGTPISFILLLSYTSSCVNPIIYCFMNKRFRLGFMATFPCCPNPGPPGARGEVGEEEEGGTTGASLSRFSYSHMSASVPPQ

Assay [3] deals with Growth hormone secretagogue receptor type 1 (Homo sapiens, UniProt Q92847).
The target in assay [4] is 5-hydroxytryptamine receptor 2B (Homo sapiens, UniProt P41595). The format is functional, cell-based.
The next assay has as its target Motilin receptor (Homo sapiens, UniProt O43193).
For assay [5], the target named is T4, Prostaglandin G/H synthase 1 (Rattus norvegicus, UniProt Q63921).
T4 sequence (Q63921 whole entry): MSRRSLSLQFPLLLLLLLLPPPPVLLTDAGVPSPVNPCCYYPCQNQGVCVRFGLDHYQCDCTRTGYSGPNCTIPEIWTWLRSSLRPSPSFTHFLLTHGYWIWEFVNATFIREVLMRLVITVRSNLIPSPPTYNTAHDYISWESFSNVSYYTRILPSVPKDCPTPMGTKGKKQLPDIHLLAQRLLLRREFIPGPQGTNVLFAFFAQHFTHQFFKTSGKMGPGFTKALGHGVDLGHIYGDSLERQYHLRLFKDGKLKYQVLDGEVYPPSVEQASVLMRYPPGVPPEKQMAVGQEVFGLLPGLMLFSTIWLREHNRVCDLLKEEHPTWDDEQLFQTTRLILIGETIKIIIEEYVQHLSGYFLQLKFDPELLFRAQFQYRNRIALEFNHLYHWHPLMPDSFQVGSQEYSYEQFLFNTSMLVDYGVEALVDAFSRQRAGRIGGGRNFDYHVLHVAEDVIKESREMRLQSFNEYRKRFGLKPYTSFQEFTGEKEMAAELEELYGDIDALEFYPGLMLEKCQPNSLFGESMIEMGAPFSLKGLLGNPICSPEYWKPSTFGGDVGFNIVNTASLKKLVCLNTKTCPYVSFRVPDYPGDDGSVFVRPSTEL
The format is functional.

Assay [6] concerns the target T5, Amine oxidase [flavin-containing] A (Homo sapiens, UniProt P21397).
T5 sequence (P21397 whole entry): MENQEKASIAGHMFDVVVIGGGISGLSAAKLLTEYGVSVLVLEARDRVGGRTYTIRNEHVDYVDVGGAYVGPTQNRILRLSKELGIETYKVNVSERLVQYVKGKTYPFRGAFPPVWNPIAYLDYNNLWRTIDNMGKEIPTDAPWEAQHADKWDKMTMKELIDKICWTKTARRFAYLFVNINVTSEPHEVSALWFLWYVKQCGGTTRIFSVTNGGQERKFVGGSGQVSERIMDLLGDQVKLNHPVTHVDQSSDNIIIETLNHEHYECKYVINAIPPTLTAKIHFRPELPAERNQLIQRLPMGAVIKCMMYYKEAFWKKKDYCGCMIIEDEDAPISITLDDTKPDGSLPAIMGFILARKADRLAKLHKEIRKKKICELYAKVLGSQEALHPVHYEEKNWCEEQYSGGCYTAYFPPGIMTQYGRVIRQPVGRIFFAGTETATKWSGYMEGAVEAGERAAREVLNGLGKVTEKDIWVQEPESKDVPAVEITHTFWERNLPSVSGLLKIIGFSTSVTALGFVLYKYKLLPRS
The class given is functional.

In assay [7] the target is cGMP-inhibited 3',5'-cyclic phosphodiesterase 3A (Homo sapiens, UniProt Q14432). The format is functional.
In a further assay the target is D(3) dopamine receptor (Homo sapiens, UniProt P35462).
Also: assay procedure not described here.

Chain of Growth hormone secretagogue receptor type 1 (Q92847 whole entry): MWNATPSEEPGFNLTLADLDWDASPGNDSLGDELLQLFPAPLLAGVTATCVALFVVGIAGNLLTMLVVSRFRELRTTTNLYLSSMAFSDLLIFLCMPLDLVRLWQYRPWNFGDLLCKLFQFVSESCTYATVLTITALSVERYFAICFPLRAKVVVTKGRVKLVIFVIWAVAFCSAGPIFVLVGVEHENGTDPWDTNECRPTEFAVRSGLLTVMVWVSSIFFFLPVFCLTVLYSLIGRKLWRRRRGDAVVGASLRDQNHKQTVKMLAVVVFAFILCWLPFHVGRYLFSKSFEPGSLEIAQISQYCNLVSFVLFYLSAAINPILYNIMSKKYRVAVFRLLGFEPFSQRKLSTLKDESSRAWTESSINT
Chain of 5-hydroxytryptamine receptor 2B (P41595 whole entry): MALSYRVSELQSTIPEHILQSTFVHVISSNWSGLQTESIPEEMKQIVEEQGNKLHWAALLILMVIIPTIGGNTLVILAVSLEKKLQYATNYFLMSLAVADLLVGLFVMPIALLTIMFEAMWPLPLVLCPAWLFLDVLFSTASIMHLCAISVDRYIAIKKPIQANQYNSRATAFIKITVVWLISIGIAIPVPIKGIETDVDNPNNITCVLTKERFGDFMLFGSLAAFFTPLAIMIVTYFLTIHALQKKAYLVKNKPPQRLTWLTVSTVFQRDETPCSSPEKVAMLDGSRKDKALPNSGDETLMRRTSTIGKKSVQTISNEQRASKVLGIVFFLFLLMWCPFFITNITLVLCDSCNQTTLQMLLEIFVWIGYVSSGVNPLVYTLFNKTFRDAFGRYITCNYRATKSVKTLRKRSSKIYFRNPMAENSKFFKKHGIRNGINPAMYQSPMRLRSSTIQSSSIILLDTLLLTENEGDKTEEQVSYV
Chain of Motilin receptor (O43193 whole entry): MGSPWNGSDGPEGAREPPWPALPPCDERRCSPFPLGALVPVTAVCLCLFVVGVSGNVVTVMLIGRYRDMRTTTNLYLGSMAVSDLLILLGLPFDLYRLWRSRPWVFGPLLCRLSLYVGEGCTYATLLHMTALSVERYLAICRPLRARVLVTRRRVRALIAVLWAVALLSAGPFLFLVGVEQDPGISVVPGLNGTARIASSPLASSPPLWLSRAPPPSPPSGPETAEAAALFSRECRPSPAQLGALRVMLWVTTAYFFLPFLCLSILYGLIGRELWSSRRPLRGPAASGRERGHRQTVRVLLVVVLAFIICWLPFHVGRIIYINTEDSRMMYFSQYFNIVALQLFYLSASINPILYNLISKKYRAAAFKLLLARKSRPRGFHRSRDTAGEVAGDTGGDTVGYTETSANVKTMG
Chain of cGMP-inhibited 3',5'-cyclic phosphodiesterase 3A (Q14432 whole entry): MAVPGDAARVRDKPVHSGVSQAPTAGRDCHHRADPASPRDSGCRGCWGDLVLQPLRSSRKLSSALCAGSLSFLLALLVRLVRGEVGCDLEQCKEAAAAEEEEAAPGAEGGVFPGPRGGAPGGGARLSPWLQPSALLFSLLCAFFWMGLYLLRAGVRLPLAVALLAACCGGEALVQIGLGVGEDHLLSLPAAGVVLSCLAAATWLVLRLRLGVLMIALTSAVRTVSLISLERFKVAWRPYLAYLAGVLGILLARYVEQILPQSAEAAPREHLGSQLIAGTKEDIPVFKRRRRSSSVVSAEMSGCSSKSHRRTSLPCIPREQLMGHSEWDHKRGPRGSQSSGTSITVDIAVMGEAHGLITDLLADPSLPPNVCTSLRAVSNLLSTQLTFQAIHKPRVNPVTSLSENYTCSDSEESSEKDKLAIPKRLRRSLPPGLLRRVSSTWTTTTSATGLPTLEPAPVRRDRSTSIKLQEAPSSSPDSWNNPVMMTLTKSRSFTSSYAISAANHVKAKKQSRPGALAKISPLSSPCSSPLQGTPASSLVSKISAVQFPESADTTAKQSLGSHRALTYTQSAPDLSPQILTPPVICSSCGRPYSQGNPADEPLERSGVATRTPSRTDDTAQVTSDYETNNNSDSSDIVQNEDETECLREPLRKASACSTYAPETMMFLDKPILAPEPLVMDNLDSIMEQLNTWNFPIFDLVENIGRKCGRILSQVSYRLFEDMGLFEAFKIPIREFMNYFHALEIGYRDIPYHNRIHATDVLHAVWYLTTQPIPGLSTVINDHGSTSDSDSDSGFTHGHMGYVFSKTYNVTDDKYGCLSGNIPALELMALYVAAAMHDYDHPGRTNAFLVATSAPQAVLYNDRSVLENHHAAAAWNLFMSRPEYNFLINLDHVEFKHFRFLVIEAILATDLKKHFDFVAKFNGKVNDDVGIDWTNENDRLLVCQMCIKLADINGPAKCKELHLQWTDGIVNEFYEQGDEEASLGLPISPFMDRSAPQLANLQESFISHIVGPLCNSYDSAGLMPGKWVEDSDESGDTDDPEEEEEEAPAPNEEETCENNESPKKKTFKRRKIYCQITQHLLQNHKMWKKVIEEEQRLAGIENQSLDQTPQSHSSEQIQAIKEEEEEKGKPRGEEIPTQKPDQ
Chain of D(3) dopamine receptor (P35462 whole entry): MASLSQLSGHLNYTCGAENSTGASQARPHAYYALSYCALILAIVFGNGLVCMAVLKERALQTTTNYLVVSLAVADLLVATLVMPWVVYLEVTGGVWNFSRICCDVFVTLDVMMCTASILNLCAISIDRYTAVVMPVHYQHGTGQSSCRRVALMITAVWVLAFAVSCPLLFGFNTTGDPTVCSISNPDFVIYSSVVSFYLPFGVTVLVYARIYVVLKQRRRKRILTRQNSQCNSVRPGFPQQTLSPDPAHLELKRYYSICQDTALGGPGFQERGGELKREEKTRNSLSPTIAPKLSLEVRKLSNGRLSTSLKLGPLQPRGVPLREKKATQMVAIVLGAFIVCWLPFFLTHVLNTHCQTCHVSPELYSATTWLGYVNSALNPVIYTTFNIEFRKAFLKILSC

Regarding `O=C(O)[C@H]1/C(=C/CO)O[C@@H]2CC(=O)N21` [CLAVULANIC ACID], the AC50 (at Adenosine receptor A3; in assay [1]; in [2]; in assay [3]; in assay [4]; on Motilin receptor) was greater than 30 µM throughout. Moreover, the AC50 (in assay [5]; in [6]; in assay [7]; on D(3) dopamine receptor) was greater than 30 µM each time.

As to `CC(C)/N=c1\cc2n(-c3ccc(Cl)cc3)c3ccccc3nc-2cc1Nc1ccc(Cl)cc1` [CLOFAZIMINE], the AC50 on Adenosine receptor A3 was greater than 30 µM; in assay [1], greater than 30 µM; in [2], greater than 30 µM; in [3], 0.92 µM; in assay [4], greater than 30 µM; at Motilin receptor, greater than 30 µM. Moreover, the AC50 (in assay [5]; in [6]; in assay [7]; at D(3) dopamine receptor) was greater than 30 µM throughout.

Take `C[C@H](Nc1ncnc2[nH]cnc12)c1cc2cccc(Cl)c2c(=O)n1-c1ccccc1` [DUVELISIB]: the AC50 (at Adenosine receptor A3; in assay [1]; in [2]; in assay [3]; in assay [4]; on Motilin receptor) was greater than 30 µM each time. Further, the AC50 (in assay [5]; in assay [6]; in [7]; at D(3) dopamine receptor) was greater than 30 µM throughout.

Take `COC(=O)CCc1ccc(OCC(O)CNC(C)C)cc1` (stereo not given) [ESMOLOL]: the AC50 (at Adenosine receptor A3; in assay [1]; in assay [2]; in [3]; in assay [4]; at Motilin receptor) was greater than 30 µM each time. In addition, the AC50 (in assay [5]; in assay [6]; in assay [7]; on D(3) dopamine receptor) was greater than 30 µM throughout.

As for `C[C@]12CCC(=O)C=C1CC[C@H]1[C@@H]3CC[C@](O)(C(=O)CO)[C@@]3(C)C[C@H](O)[C@@]12F` [FLUDROCORTISONE], the AC50 on Adenosine receptor A3 was greater than 30 µM; in [1] it was greater than 10 µM; in [2], greater than 30 µM; in [3] it was greater than 30 µM; in assay [4], greater than 10 µM; at Motilin receptor it was greater than 10 µM. For the same molecule, the AC50 is greater than 30 µM in [5], greater than 10 µM in assay [6], greater than 30 µM in assay [7] and greater than 30 µM on D(3) dopamine receptor.

Consider `NCC1(CC(=O)O)CCCCC1` [GABAPENTIN], for which the AC50 (at Adenosine receptor A3; in assay [1]; in assay [2]; in assay [3]; in assay [4]; at Motilin receptor) was greater than 30 µM throughout. In addition, the AC50 (in assay [5]; in assay [6]; in assay [7]; at D(3) dopamine receptor) was greater than 30 µM each time.

Consider `CCN(CCO)CCCC(C)Nc1ccnc2cc(Cl)ccc12` (stereo not given) [HYDROXYCHLOROQUINE], for which the AC50 (at Adenosine receptor A3; in assay [1]; in assay [2]; in assay [3]; in assay [4]; at Motilin receptor) was greater than 10 µM each time. For the same molecule, the AC50 in assay [5] was greater than 10 µM; in assay [6], greater than 10 µM; in [7] it was greater than 30 µM; at D(3) dopamine receptor, greater than 30 µM.

`OCCOCCN1CCN(C(c2ccccc2)c2ccc(Cl)cc2)CC1` (stereo not given) [HYDROXYZINE]: the AC50 at Adenosine receptor A3 is greater than 30 µM; in assay [1], greater than 10 µM; in [2] it was greater than 30 µM; in [3] it was greater than 30 µM; in assay [4], greater than 10 µM; at Motilin receptor, greater than 10 µM. Further, the AC50 is greater than 30 µM in [5], greater than 10 µM in [6], greater than 30 µM in [7] and 0.29 µM on D(3) dopamine receptor.

In the case of `C[C@@H](O)[C@H]1C(=O)N2C(C(=O)O)=C(SCCN=CN)C[C@H]12` [IMIPENEM ANHYDROUS], the AC50 on Adenosine receptor A3 is 180 µM; in assay [1], greater than 300 µM; in [2], greater than 300 µM; in [3] it was greater than 300 µM; in [4], greater than 300 µM; on Motilin receptor it was greater than 300 µM. Further, the AC50 (in assay [5]; in [6]; in assay [7]; on D(3) dopamine receptor) was greater than 300 µM in each case.

In the case of `O=C(c1ccccc1)c1ccc2n1CCC2C(=O)O` (stereo not given) [KETOROLAC], the AC50 at Adenosine receptor A3 is greater than 10 µM; in assay [1], greater than 30 µM; in assay [2] it was greater than 10 µM; in assay [3], greater than 10 µM; in assay [4], greater than 30 µM; at Motilin receptor it was greater than 10 µM. Besides, the AC50 in assay [5] is 0.0239 µM; in [6], greater than 30 µM; in [7], greater than 30 µM; at D(3) dopamine receptor it was greater than 30 µM.

Take `Nc1nnc(-c2cccc(Cl)c2Cl)c(N)n1` [LAMOTRIGINE]: the AC50 on Adenosine receptor A3 is greater than 30 µM; in assay [1] it was greater than 10 µM; in assay [2], greater than 30 µM; in assay [3], greater than 30 µM; in assay [4], greater than 10 µM; on Motilin receptor, greater than 10 µM. For the same molecule, the AC50 in assay [5] is greater than 30 µM; in assay [6] it was 16 µM; in assay [7], 2.1 µM; at D(3) dopamine receptor, greater than 10 µM.

Regarding `N[C@@H](Cc1cc(I)c(Oc2cc(I)c(O)c(I)c2)c(I)c1)C(=O)O` [LEVOTHYROXINE], the AC50 is 11 µM at Adenosine receptor A3; greater than 30 µM in assay [1]; greater than 30 µM in assay [2]; greater than 30 µM in assay [3]; greater than 30 µM in assay [4]; greater than 30 µM at Motilin receptor. In addition, the AC50 (in assay [5]; in assay [6]; in assay [7]; at D(3) dopamine receptor) was greater than 30 µM in each case.

With `CNC1(C)C2CCC(C2)C1(C)C` (stereo not given) [MECAMYLAMINE], the AC50 (at Adenosine receptor A3; in [1]; in assay [2]; in [3]; in assay [4]; on Motilin receptor) was greater than 10 µM each time. The AC50 is greater than 10 µM in assay [5], greater than 10 µM in assay [6], greater than 30 µM in [7] and greater than 30 µM at D(3) dopamine receptor.
